Test system: Claviceps purpurea
Assay: Field trials 2018 in Canada: foliar application at early flowering, sclerotia (ergot bodies) counted in harvested wheat grain
Type: in vivo
Settings: 75 grams/ha Pydiflumetofen, spring wheat (AC Goodeve) or durum wheat (AC Strongfield), crop per trial not stated
Experimental: Pydiflumetofen as well as market standards were applied according to table 2 between Jul. 6-9, 2018 between BBCH stage 61-63 (early flowering). Assessment of sclerotia was conducted in fall 2018 on harvested grain samples. […] A mixture of Pydiflumetofen and Propiconazole is also available as a suspension concentrate 275 SC formulation (275 grams of total active ingredients) with 150 grams of Pydiflumetofen and 125 grams of Propiconazole per litre under the name […] be tested for reduction of sclerotia in cereals, in particular in spring wheat, winter wheat, durum, hybrid spring wheat, hybrid winter wheat, winter rye, spring rye, hybrid winter rye, hybrid spring rye, and […] plants.

CON(C(=O)c1cn(C)nc1C(F)F)C(C)Cc1c(Cl)cc(Cl)cc1Cl (stereo not drawn) [Pydiflumetofen, 3-(difluoromethyl)-N-methoxy-1-methyl-N-[1-methyl-2-(2,4,6-trichlorophenyl)ethyl]-1H-pyrazole-4-carboxamide]
Trial No 1 number of Ergot bodies per kg seed (applied BBCH 61-63, untreated 0.5): 0.5 per kg seed
Trial No 3 number of Ergot bodies per kg seed (applied BBCH 61-63, untreated 1.3): 0 per kg seed
Trial No 2 number of Ergot bodies per kg seed (applied BBCH 61-63, untreated 2.3): 0.3 per kg seed

— patent US20220369638A1, “USE OF THE SUCCINATE DEHYDROGENASE INHIBITOR PYDIFLUMETOFEN FOR CONTROLLING CLAVICEPS PURPUREA AND REDUCING SCLEROTIA IN CEREALS” (Bayer Aktiengesellschaft, priority 2019, published 2022)
